Test results: ChEMBL document CHEMBL3272348, “Synthesis and pharmacology of 2,9alpha-dimethyl-2'-hydroxy-6,7-benzomorphan” (J Med Chem, 1976)
Activity calls are given as the source filed them. The calls are words filed in the database; no cut-off is given here.

Key:
[1] = tested on: Rhesus monkey; experiment: Narcotic antagonist activity in morphine-dependent monkey; type: functional, organism-based; details: Macaca mulatta
[2] = tested on: Mus musculus; experiment: Analgesic activity in sc dosed white mouse by hot plate method; type: functional
[3] = tested on: Rhesus monkey; experiment: Precipitation of abstinence syndrome of long duration in morphine-dependent monkey assessed as irritability; type: ADME, organism-based, Macaca mulatta; details: in vivo
[4] = tested on: Rhesus monkey; experiment: Precipitation of abstinence syndrome of long duration in morphine-dependent monkey assessed as abdominal cramps; type: ADME, organism-based, Macaca mulatta, Abdomen; details: in vivo
[5] = tested on: Rhesus monkey; experiment: Precipitation of abstinence syndrome of long duration in morphine-dependent monkey assessed as hyperexcitability; type: ADME, organism-based, Macaca mulatta; details: in vivo
[6] = tested on: Rhesus monkey; experiment: Precipitation of abstinence syndrome of long duration in morphine-dependent monkey assessed as movement within cage; type: ADME, organism-based, Macaca mulatta; details: in vivo

**Q.** For CN1CC[C@@H]2CC1Cc1ccc(O)cc12, which Activity [1] is on record?
**A.** Active

**Q.** How did the ED50 [2] turn out when CN1CC[C@]23c4c5ccc(O)c4O[C@H]2[C@@H](O)C=C[C@H]3[C@H]1C5 [MORPHINE] was run?
**A.** 1.2 mg/kg

**Q.** Which results are given for C[C@@H]1C2Cc3ccc(O)cc3[C@@H]1CCN2C?
**A.** ED50 [2]: 1.1 mg/kg; Activity [3]: Toxic; Activity [4]: Toxic; Activity [5]: Non-toxic; Activity [6]: Non-toxic; Activity [1]: Active

**Q.** Which ED50 [2] does the source give for C[C@H]1C2Cc3ccc(O)cc3[C@@H]1CCN2C here?
**A.** 4.3 mg/kg

**Q.** And the Activity [3]?
**A.** Toxic

**Q.** What about the Activity [4] of the same molecule?
**A.** Toxic

**Q.** What about the Activity [5] of the same molecule?
**A.** Non-toxic

**Q.** And the Activity [6]?
**A.** Non-toxic

**Q.** CCOC(=O)C1(c2ccccc2)CCN(C)CC1 [MEPERIDINE] was tested. Which ED50 [2] did it give?
**A.** 4.5 mg/kg
